Drawing on publication PMC2686615 (International Immunology, 2009), this text covers IC50 for seven compounds.

Each structure is given as a SMILES string. Where a SMILES comes first, the peptide text is derived from it.

The test addresses soluble DQ8 proteins (HLA-DQ8, DQA1*0301/DQB1*0302) (Homo sapiens, UniProt P01909+P01920, A209T/A45G/C70Q/D89A/DUP78-78/E183D/E77G/F237L/G63E/H199R/I129T/K197E/L178F/L74F/L98V/Q57E/Q76R/S185I/S97I/T217I/T49S/V73L/Y58L). In kind it is binding.
As for `CC[C@H](C)[C@H](NC(=O)CNC(=O)[C@H](C)NC(=O)[C@H](CCC(N)=O)NC(=O)[C@@H](NC(=O)[C@H](CCC(N)=O)NC(=O)[C@H](Cc1ccc(O)cc1)NC(=O)[C@H](CC(=O)O)NC(=O)[C@@H]1CCCN1C(=O)[C@H](Cc1ccc(O)cc1)NC(=O)[C@@H](N)CC(C)C)[C@@H](C)CC)C(=O)N[C@@H](CCSC)C(=O)N[C@H](C(=O)N[C@H](C(=O)O)[C@@H](C)O)[C@@H](C)CC` [ZnT8 166–179] (H-LYPDYQIQAGIMIT-OH), half-maximal inhibition (IC50) was put at 0.7 µM. Next, `CC[C@H](C)[C@H](NC(=O)[C@H](CCC(N)=O)NC(=O)[C@@H](NC(=O)[C@@H](NC(=O)[C@@H](N)CC(C)C)[C@@H](C)O)[C@@H](C)CC)C(=O)N[C@@H](CCC(=O)O)C(=O)N[C@@H](CO)C(=O)N[C@@H](C)C(=O)N[C@@H](C)C(=O)N[C@@H](CC(=O)O)C(=O)N[C@@H](CCC(N)=O)C(=O)N[C@@H](CC(=O)O)C(=O)N1CCC[C@H]1C(=O)N[C@@H](CO)C(=O)O` [ZnT8 345–358] (H-LTIQIESAADQDPS-OH): 2.5 µM; `CC[C@H](C)[C@H](NC(=O)[C@H](Cc1c[nH]cn1)NC(=O)[C@H](CC(C)C)NC(=O)[C@H](CO)NC(=O)[C@H](Cc1c[nH]cn1)NC(=O)[C@@H](NC(=O)[C@H](CO)NC(=O)[C@@H](NC(=O)[C@@H](NC(=O)CNC(=O)[C@H](CC(=O)O)NC(=O)[C@@H](NC(=O)[C@H](C)N)C(C)C)C(C)C)[C@@H](C)CC)C(C)C)C(=O)N[C@@H](Cc1c[nH]c2ccccc12)C(=O)O` [ZnT8 292–305] (H-AVDGVISVHSLHIW-OH): 18 µM; `CC[C@H](C)[C@H](NC(=O)[C@H](C)N)C(=O)N[C@@H](CC(C)C)C(=O)N[C@H](C(=O)N[C@@H](CC(=O)O)C(=O)N[C@@H](C)C(=O)N[C@@H](C)C(=O)N[C@@H](Cc1c[nH]cn1)C(=O)N[C@@H](CC(C)C)C(=O)N[C@@H](CC(C)C)C(=O)N[C@H](C(=O)N[C@@H](CC(=O)O)C(=O)N[C@@H](CC(C)C)C(=O)N[C@H](C(=O)O)[C@@H](C)O)[C@@H](C)CC)[C@@H](C)O` [ZnT8 98–111] (H-AILTDAAHLLIDLT-OH): 7.2 µM. Next, `CC[C@H](C)[C@H](NC(=O)CNC(=O)[C@@H](NC(=O)[C@@H](N)CCCNC(=N)N)[C@@H](C)O)C(=O)N[C@@H](C)C(=O)N[C@@H](CCC(N)=O)C(=O)N[C@@H](C)C(=O)N[C@@H](CC(C)C)C(=O)N[C@@H](CO)C(=O)N[C@@H](CO)C(=O)N[C@@H](Cc1ccccc1)C(=O)N[C@@H](CC(=O)O)C(=O)N[C@@H](CC(C)C)C(=O)N[C@@H](Cc1c[nH]cn1)C(=O)O` [ZnT8 330–343] (H-RTGIAQALSSFDLH-OH): 2.5 µM; `CC[C@H](C)[C@H](N)C(=O)N[C@@H](CC(C)C)C(=O)N[C@@H](CO)C(=O)N[C@H](C(=O)N[C@@H](Cc1c[nH]cn1)C(=O)N[C@H](C(=O)N[C@@H](C)C(=O)N[C@H](C(=O)N[C@@H](C)C(=O)N[C@@H](C)C(=O)N[C@@H](CO)C(=O)N[C@@H](CCC(N)=O)C(=O)N[C@@H](CC(=O)O)C(=O)N[C@@H](CO)C(=O)O)[C@@H](C)O)C(C)C)C(C)C` [ZnT8 313–326] (H-ILSVHVATAASQDS-OH): 4.9 µM; `CC[C@H](C)[C@H](NC(=O)[C@H](CCC(=O)O)NC(=O)[C@H](C)NC(=O)[C@H](CCCNC(=N)N)NC(=O)[C@H](Cc1ccc(O)cc1)NC(=O)[C@H](Cc1c[nH]c2ccccc12)NC(=O)CNC(=O)[C@H](Cc1ccccc1)NC(=O)[C@@H](NC(=O)[C@H](CC(C)C)NC(=O)[C@H](CCCNC(=N)N)NC(=O)[C@H](CCCCN)NC(=O)[C@@H](N)CO)[C@@H](C)O)C(=O)N[C@@H](CC(C)C)C(=O)O` [ZnT8 128–141] (H-SKRLTFGWYRAEIL-OH): 20.2 µM.
